Values of other authors, collected in article PMC9516332 (Frontiers in Oncology, 2022).
Where two headings read alike, the source gives them in different places.

Tests used:
Conditions in all cases: cited from earlier work
[1] = biological target: T1, panel of 255 wild-type kinases (Homo sapiens, UniProt O94806)
T1 sequence (O94806 1-890): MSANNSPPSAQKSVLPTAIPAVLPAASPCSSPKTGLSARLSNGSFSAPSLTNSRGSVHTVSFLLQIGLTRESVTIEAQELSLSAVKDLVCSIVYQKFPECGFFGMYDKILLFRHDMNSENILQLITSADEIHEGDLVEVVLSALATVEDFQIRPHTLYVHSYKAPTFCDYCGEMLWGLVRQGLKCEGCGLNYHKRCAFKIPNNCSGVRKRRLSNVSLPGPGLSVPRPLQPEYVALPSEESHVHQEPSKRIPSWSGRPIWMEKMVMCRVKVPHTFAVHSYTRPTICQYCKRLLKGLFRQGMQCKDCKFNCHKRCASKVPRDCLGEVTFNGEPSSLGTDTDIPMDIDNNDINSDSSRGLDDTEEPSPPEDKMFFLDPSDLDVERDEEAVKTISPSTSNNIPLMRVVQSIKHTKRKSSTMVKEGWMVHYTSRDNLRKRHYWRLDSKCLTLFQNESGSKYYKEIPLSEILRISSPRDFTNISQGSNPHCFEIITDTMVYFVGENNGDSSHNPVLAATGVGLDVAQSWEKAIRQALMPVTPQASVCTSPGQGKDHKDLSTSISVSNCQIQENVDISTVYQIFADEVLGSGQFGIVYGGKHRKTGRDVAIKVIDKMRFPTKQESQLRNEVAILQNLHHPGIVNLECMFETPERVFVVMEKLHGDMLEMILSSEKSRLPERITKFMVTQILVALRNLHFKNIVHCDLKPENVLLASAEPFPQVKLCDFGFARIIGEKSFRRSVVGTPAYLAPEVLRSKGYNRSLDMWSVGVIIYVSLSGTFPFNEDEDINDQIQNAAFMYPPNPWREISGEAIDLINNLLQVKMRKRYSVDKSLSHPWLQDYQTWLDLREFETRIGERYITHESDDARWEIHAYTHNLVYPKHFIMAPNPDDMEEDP

[2] = biological target: panel of 255 wild-type kinases (Homo sapiens, UniProt P50613)
[3] = biological target: panel of 255 wild-type kinases (Homo sapiens, UniProt P22607)
[4] = biological target: panel of 255 wild-type kinases (Homo sapiens, UniProt P29597)
[5] = biological target: panel of 255 wild-type kinases (Homo sapiens, UniProt P19784)
[6] = biological target: panel of 255 wild-type kinases (Homo sapiens, UniProt O75116)
[7] = biological target: panel of 255 wild-type kinases (Homo sapiens, UniProt P49761)
[8] = biological target: panel of 255 wild-type kinases (Homo sapiens, UniProt P07332)
[9] = biological target: panel of 255 wild-type kinases (Homo sapiens, UniProt Q08345)
[10] = biological target: panel of 255 wild-type kinases (Homo sapiens, UniProt Q7KZI7)
[11] = biological target: panel of 255 wild-type kinases (Homo sapiens, UniProt Q16288)
[12] = biological target: panel of 255 wild-type kinases (Homo sapiens, UniProt Q00534)
[13] = biological target: panel of 255 wild-type kinases (Homo sapiens, UniProt O94804)
[14] = biological target: panel of 255 wild-type kinases (Homo sapiens, UniProt P06241)
[15] = biological target: panel of 255 wild-type kinases (Homo sapiens, UniProt Q9HCP0)
[16] = kinase PKD3, 1 µmol/L single concentration, ref DOI: 10.1158/1535-7163.MCT-18-0877
[17] = CDK7/CycH/MAT1 kinase assay, 1 µmol/L single concentration, ref DOI: 10.1158/1535-7163.MCT-18-0877
[18] = kinase FGFR3, 1 µmol/L single concentration, ref DOI: 10.1158/1535-7163.MCT-18-0877
[19] = kinase TYK2, 1 µmol/L single concentration, ref DOI: 10.1158/1535-7163.MCT-18-0877
[20] = kinase CK2α2/β, 1 µmol/L single concentration, ref DOI: 10.1158/1535-7163.MCT-18-0877
[21] = kinase ROCK2, 1 µmol/L single concentration, ref DOI: 10.1158/1535-7163.MCT-18-0877
[22] = kinase CLK3, 1 µmol/L single concentration, ref DOI: 10.1158/1535-7163.MCT-18-0877
[23] = kinase FES, 1 µmol/L single concentration, ref DOI: 10.1158/1535-7163.MCT-18-0877
[24] = kinase DDR1, 1 µmol/L single concentration, ref DOI: 10.1158/1535-7163.MCT-18-0877
[25] = MARK2, 1 µmol/L single concentration, ref DOI: 10.1158/1535-7163.MCT-18-0877
[26] = kinase TRKC, 1 µmol/L single concentration, ref DOI: 10.1158/1535-7163.MCT-18-0877
[27] = CDK6/CycD3 kinase assay, 1 µmol/L single concentration, ref DOI: 10.1158/1535-7163.MCT-18-0877
[28] = kinase LOK, 1 µmol/L single concentration, ref DOI: 10.1158/1535-7163.MCT-18-0877
[29] = kinase FYN [isoform a], 1 µmol/L single concentration, ref DOI: 10.1158/1535-7163.MCT-18-0877
[30] = kinase CK1γ1, 1 µmol/L single concentration, ref DOI: 10.1158/1535-7163.MCT-18-0877

Q: Which results are given for `COc1cc(N2CCC(N3CCN(C)CC3)CC2)ccc1Nc1ncc(Cl)c(Nc2ccccc2P(C)(C)=O)n1` [brigatinib]?
A: %-inhibition at 1 µmol/L, PKD3 [1]: 85%; %-inhibition CDK7/CycH/MAT1 [2]: 55%; %-inhibition at 1 µmol/L, FGFR3 [3]: 93%; %-inhibition at 1 µmol/L, TYK2 [4]: 23%; %-inhibition at 1 µmol/L, CK2α2/β [5]: -4%; %-inhibition at 1 µmol/L, ROCK2 [6]: 30%; %-inhibition at 1 µmol/L, CLK3 [7]: 33%; %-inhibition at 1 µmol/L, FES [8]: 100%; %-inhibition at 1 µmol/L, DDR1 [9]: 84%; %-inhibition, MARK2 [10]: 96%; %-inhibition at 1 µmol/L, TRKC [11]: 53%; %-inhibition CDK6/CycD3 [12]: 18%; %-inhibition at 1 µmol/L, LOK [13]: 96%; %-inhibition at 1 µmol/L, FYN [isoform a] [14]: 69%; %-inhibition at 1 µmol/L, CK1γ1 [15]: 1.13%

Q: For `O=C(c1ccc(F)c(F)c1Nc1ccc(I)cc1F)N1CC(O)([C@@H]2CCCCN2)C1` [cobimetinib], which “%-inhibition at 1 µmol/L, PKD3” value [1, 16] is on record?
A: Its value is 4.41%.

Q: And the “%-inhibition CDK7/CycH/MAT1” value [2, 17]?
A: The value was 6%.

Q: And the “%-inhibition at 1 µmol/L, FGFR3” value [3, 18]?
A: The value was 5%.

Q: And the “%-inhibition at 1 µmol/L, TYK2” value [4, 19]?
A: The value was 6.35%.

Q: What about the “%-inhibition at 1 µmol/L, CK2α2/β” value [5, 20] of the same compound?
A: The value was -6%.

Q: And the “%-inhibition at 1 µmol/L, ROCK2” value [6, 21]?
A: The value was 3.55%.

Q: And the “%-inhibition at 1 µmol/L, CLK3” value [7, 22]?
A: Its value is 4%.

Q: What about the “%-inhibition at 1 µmol/L, FES” value [8, 23] of the same compound?
A: Its value is 1.67%.

Q: And the “%-inhibition at 1 µmol/L, DDR1” value [9, 24]?
A: The value was 6.37%.

Q: And the “%-inhibition, MARK2” value [10, 25]?
A: The value was -6.58%.

Q: What about the “%-inhibition at 1 µmol/L, TRKC” value [11, 26] of the same compound?
A: The value was -1.37%.

Q: And the “%-inhibition CDK6/CycD3” value [12, 27]?
A: Its value is 0.129%.

Q: What about the “%-inhibition at 1 µmol/L, LOK” value [13, 28] of the same compound?
A: The value was 10%.

Q: What about the “%-inhibition at 1 µmol/L, FYN [isoform a]” value [14, 29] of the same compound?
A: The value was 0.258%.

Q: What about the “%-inhibition at 1 µmol/L, CK1γ1” value [15, 30] of the same compound?
A: The value was 2.67%.

Q: With `C=CC(=O)Nc1cc(Nc2nccc(-c3cn(C)c4ccccc34)n2)c(OC)cc1N(C)CCN(C)C` [osimertinib] as the compound, how does the “%-inhibition at 1 µmol/L, PKD3” value [1, 16] read?
A: The value was 28%.

Q: What about the “%-inhibition CDK7/CycH/MAT1” value [2, 17] of the same compound?
A: The value was 8.57%.

Q: And the “%-inhibition at 1 µmol/L, FGFR3” value [3, 18]?
A: Its value is 10%.

Q: What about the “%-inhibition at 1 µmol/L, TYK2” value [4, 19] of the same compound?
A: Its value is 9%.

Q: What about the “%-inhibition at 1 µmol/L, CK2α2/β” value [5, 20] of the same compound?
A: Its value is 16%.

Q: What about the “%-inhibition at 1 µmol/L, ROCK2” value [6, 21] of the same compound?
A: Its value is 6.54%.

Q: And the “%-inhibition at 1 µmol/L, CLK3” value [7, 22]?
A: The value was 6%.

Q: What about the “%-inhibition at 1 µmol/L, FES” value [8, 23] of the same compound?
A: Its value is 42%.

Q: What about the “%-inhibition at 1 µmol/L, DDR1” value [9, 24] of the same compound?
A: The value was 46%.

Q: And the “%-inhibition, MARK2” value [10, 25]?
A: Its value is 26%.

Q: And the “%-inhibition at 1 µmol/L, TRKC” value [11, 26]?
A: The value was -1.61%.

Q: What about the “%-inhibition CDK6/CycD3” value [12, 27] of the same compound?
A: The value was 0.62%.

Q: And the “%-inhibition at 1 µmol/L, LOK” value [13, 28]?
A: Its value is 42%.

Q: And the “%-inhibition at 1 µmol/L, FYN [isoform a]” value [14, 29]?
A: The value was 0.721%.

Q: What about the “%-inhibition at 1 µmol/L, CK1γ1” value [15, 30] of the same compound?
A: Its value is 10%.

Q: Which results are given for `CCCS(=O)(=O)Nc1ccc(F)c(C(=O)c2c[nH]c3ncc(-c4ccc(Cl)cc4)cc23)c1F` [vemurafenib]?
A: %-inhibition at 1 µmol/L, PKD3 ([1]; kinase PKD3, 1 µmol/L single concentration, ref DOI: 10.1371/journal.pone.0092146): -4.7%; %-inhibition CDK7/CycH/MAT1 ([2]; CDK7/CycH/MAT1 kinase assay, 1 µmol/L single concentration, ref DOI: 10.1371/journal.pone.0092146): 0.137%; %-inhibition at 1 µmol/L, FGFR3 ([3]; kinase FGFR3, 1 µmol/L single concentration, ref DOI: 10.1371/journal.pone.0092146): 15%; %-inhibition at 1 µmol/L, TYK2 ([4]; kinase TYK2, 1 µmol/L single concentration, ref DOI: 10.1371/journal.pone.0092146): 6%; %-inhibition at 1 µmol/L, CK2α2/β ([5]; kinase CK2α2/β, 1 µmol/L single concentration, ref DOI: 10.1371/journal.pone.0092146): -6.56%; %-inhibition at 1 µmol/L, ROCK2 ([6]; kinase ROCK2, 1 µmol/L single concentration, ref DOI: 10.1371/journal.pone.0092146): -0.177%; %-inhibition at 1 µmol/L, CLK3 ([7]; kinase CLK3, 1 µmol/L single concentration, ref DOI: 10.1371/journal.pone.0092146): -14%; %-inhibition at 1 µmol/L, FES ([8]; kinase FES, 1 µmol/L single concentration, ref DOI: 10.1371/journal.pone.0092146): 18%; %-inhibition at 1 µmol/L, DDR1 ([9]; kinase DDR1, 1 µmol/L single concentration, ref DOI: 10.1371/journal.pone.0092146): 52%; %-inhibition, MARK2 ([10]; MARK2, 1 µmol/L single concentration, ref DOI: 10.1371/journal.pone.0092146): -0.167%; %-inhibition at 1 µmol/L, TRKC ([11]; kinase TRKC, 1 µmol/L single concentration, ref DOI: 10.1371/journal.pone.0092146): 5%; %-inhibition CDK6/CycD3 ([12]; CDK6/CycD3 kinase assay, 1 µmol/L single concentration, ref DOI: 10.1371/journal.pone.0092146): 2.43%; %-inhibition at 1 µmol/L, LOK ([13]; kinase LOK, 1 µmol/L single concentration, ref DOI: 10.1371/journal.pone.0092146): -1%; %-inhibition at 1 µmol/L, FYN [isoform a] ([14]; kinase FYN [isoform a], 1 µmol/L single concentration, ref DOI: 10.1371/journal.pone.0092146): 81%; %-inhibition at 1 µmol/L, CK1γ1 ([15]; kinase CK1γ1, 1 µmol/L single concentration, ref DOI: 10.1371/journal.pone.0092146): -2%
